Measured values as given in US20230203081A1, “LINCOSAMIDE ANTIBIOTICS AND USES THEREOF” (President and Fellows of Harvard College, priority 2020, published 2023).
Values after ≈ are worked out from the molar mass of the structure shown.

Columns and labels:
Type in all cases: cell-based
E. coli armA = experiment: microbe, parasite or virus in culture; conditions: Escherichia coli, E. coli HAV#056; Clinical, armA
Method in brief: (§1)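 Per CLSI, MICs by broth microdilution or agar dilution; strains other than streptococci and anaerobes were sub-cultured overnight at 35° C on blood agar, with a final broth inoculum of 5×10^5 CFU/mL.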

E. coli ΔTolC = experiment: microbe, parasite or virus in culture; conditions: Escherichia coli, E. coli HAV#038; ΔTolC
Method in brief: as §1

S. aureus BAA 977 iErmA = experiment: microbe, parasite or virus in culture; conditions: Staphylococcus aureus, BAA-977 / MRSA
Method in brief: as §1

S. aureus MP-549 msrA = experiment: microbe, parasite or virus in culture; conditions: Staphylococcus aureus, MP549MSRA; S. aureus HAV#032, MP-549; MSR(A); read-out: MIC
Method in brief: as §1

[1] = system: broad panel of different clinical isolates; experiment: microbe, parasite or virus in culture
Method in brief: as §1

E. coli ATCC 25922 = experiment: MIC (broth microdilution or agar dilution, CLSI); conditions: Escherichia coli, ATCC25922; E. coli HAV#006, ATCC 25922; read-out: MIC
Method in brief: as §1

E. coli LptD = experiment: MIC (broth microdilution or agar dilution, CLSI); conditions: Escherichia coli, E. coli HAV#040; LptD; read-out: MIC
Method in brief: as §1

[2] = system: E. faecalis MMX 847; cErmB; experiment: MIC (broth microdilution or agar dilution, CLSI); conditions: Enterococcus faecalis; E. faecalis HAV#036, MMX 847; mac-resistant, cErmB; read-out: MIC
Method in brief: as §1

K. pneumoniae ATCC 10031 = experiment: MIC (broth microdilution or agar dilution, CLSI); conditions: Klebsiella pneumoniae, ATCC10031, K. pneumoniae HAV#008, ATCC 10031; read-out: MIC
Method in brief: as §1

S. aureus ATCC 29213 = experiment: MIC (broth microdilution or agar dilution, CLSI); conditions: Staphylococcus aureus, ATCC29213, S. aureus HAV#001, ATCC 29213, MP-549; read-out: MIC
Method in brief: as §1

S. aureus ATCC 700699 = experiment: MIC (broth microdilution or agar dilution, CLSI); conditions: Staphylococcus aureus; S. aureus HAV#202, ATCC 700699 (VISA); read-out: MIC
Method in brief: as §1

[3] = system: S. aureus ATCC BAA-1707 (MRSA); experiment: MIC (broth microdilution or agar dilution, CLSI); conditions: Staphylococcus aureus; S. aureus HAV#016, ATCC BAA-1707; MRSA; read-out: MIC
Method in brief: as §1

S. aureus MMX 3035 cErmA = experiment: MIC (broth microdilution or agar dilution, CLSI); conditions: Staphylococcus aureus, MMX3035CERMA; S. aureus HAV#031, MMX 3035; cErmA; read-out: MIC
Method in brief: as §1

S. pneumoniae ATCC 49619 = experiment: MIC (broth microdilution or agar dilution, CLSI); conditions: Streptococcus pneumoniae, ATCC49619
Method in brief: as §1

S. pneumoniae ATCC 6303 = experiment: MIC (broth microdilution or agar dilution, CLSI); conditions: Streptococcus pneumoniae, ATCC6303; S. pneumoniae HAV#351, ATCC 6303; read-out: MIC
Method in brief: as §1

[4] = system: S. pneumoniae MMX 3028 cErmB; experiment: MIC (broth microdilution or agar dilution, CLSI); conditions: Streptococcus pneumoniae, MMX3028CERMB; S. pneumoniae HAV#033; MMX 3028, cErmB; read-out: MIC
Method in brief: as §1

[5] = system: S. pneumoniae MMX 3031 cMefA; experiment: MIC (broth microdilution or agar dilution, CLSI); conditions: Streptococcus pneumoniae, MMX3031CMEFA, S. pneumoniae HAV#034; MMX 3031, cMefA; read-out: MIC
Method in brief: as §1

S. pyogenes ATCC 19615 = experiment: MIC (broth microdilution or agar dilution, CLSI); conditions: Streptococcus pyogenes, ATCC19615, S. pyogenes HAV#004, ATCC 19615; read-out: MIC
Method in brief: as §1

[6] = system: S. pyogenes MMX 946; cErmB; experiment: MIC (broth microdilution or agar dilution, CLSI); conditions: Streptococcus pyogenes; S. pyogenes HAV#035, MMX 946; cErmB, mac-resistant; read-out: MIC
Method in brief: as §1

## CC[C@H]1OC(=O)[C@H](C)[C@@H](O[C@H]2C[C@@](C)(OC)[C@@H](O)[C@H](C)O2)[C@H](C)[C@@H](O[C@@H]2O[C@H](C)C[C@H](N(C)C)[C@H]2O)[C@](C)(O)C[C@@H](C)CN(C)[C@H](C)[C@@H](O)[C@]1(C)O [Azithromycin]
E. coli armA
  MIC: 4 µg/mL (≈ 5.34 µM)
E. coli ΔTolC
  MIC: 1 µg/mL (≈ 1.34 µM)
S. aureus BAA 977 iErmA
  MIC: > 64 µg/mL
S. aureus MP-549 msrA
  MIC: > 64 µg/mL
[1]; Enterococcus faecalis, E. faecalis HAV#602, Clincal
  MIC: 4 µg/mL (≈ 5.34 µM)
[1]; Enterococcus faecalis, E. faecalis HAV#607, Clinical
  MIC: > 128 µg/mL
[1]; Enterococcus faecalis, E. faecalis HAV#608, Clinical
  MIC: > 128 µg/mL
[1]; Enterococcus faecalis, E. faecalis HAV#609, Clinical
  MIC: > 128 µg/mL
[1]; Enterococcus faecalis, E. faecalis HAV#610, Clinical
  MIC: > 128 µg/mL
[1]; Enterococcus faecalis, S. faecalis 5060, Line R & Vanco R
  MIC: > 256 µg/mL
[1]; Enterococcus faecalis, S. faecalis 5074, Line R
  MIC: 4 µg/mL (≈ 5.34 µM)
[1]; Enterococcus faecalis, VRE, E. faecalis HAV#251, Clinical VRE
  MIC: > 64 µg/mL
[1]; Enterococcus faecalis, VRE, E. faecalis HAV#606, Clinical
  MIC: > 128 µg/mL
[1]; Enterococcus faecium, E. faecium HAV#317, Clinical
  MIC: 8 µg/mL (≈ 10.7 µM)
[1]; Enterococcus faecium, E. faecium HAV#324, Clinical
  MIC: > 128 µg/mL
[1]; Enterococcus faecium, E. faecium HAV#327, Clinical
  MIC: > 128 µg/mL
[1]; Enterococcus faecium, E. faecium HAV#328, Clinical
  MIC: > 128 µg/mL
[1]; Enterococcus faecium, E. faecium HAV#329, Clinical
  MIC: > 128 µg/mL
[1]; Enterococcus faecium, VRE, E. faecium HAV#318, VanA
  MIC: > 64 µg/mL
[1]; Enterococcus faecium, VRE, E. faecium HAV#320, Clinical
  MIC: > 128 µg/mL
[1]; Escherichia coli, E. coli HAV#501, Clinical
  MIC: 64 µg/mL (≈ 85.4 µM)
[1]; Escherichia coli, E. coli HAV#503, Clinical
  MIC: 8 µg/mL (≈ 10.7 µM)
[1]; Escherichia coli, E. coli HAV#511, Clinical
  MIC: 4 µg/mL (≈ 5.34 µM)
[1]; Escherichia coli, E. coli HAV#512, Clinical
  MIC: 8 µg/mL (≈ 10.7 µM)
[1]; Escherichia coli, E. coli HAV#513, Clinical
  MIC: 8 µg/mL (≈ 10.7 µM)
[1]; Escherichia coli, E. coli HAV#514, Clinical
  MIC: 8 µg/mL (≈ 10.7 µM)
[1]; Escherichia coli, E. coli HAV#516, ESBL-producing
  MIC: 4 µg/mL (≈ 5.34 µM)
[1]; Haemophilus influenzae, ATCC9007, H. influenzae HAV#376, ATCC-9007
  MIC: 2 µg/mL (≈ 2.67 µM)
[1]; Klebsiella pneumoniae, K. pneumoniae HAV#041, Clinical, KPC
  MIC: > 64 µg/mL
[1]; Klebsiella pneumoniae, K. pneumoniae HAV#404, Clinical
  MIC: 8 µg/mL (≈ 10.7 µM)
[1]; Klebsiella pneumoniae, K. pneumoniae HAV#405, Clinical
  MIC: 8 µg/mL (≈ 10.7 µM)
[1]; Staphylococcus aureus, MRSA, S. aureus HAV#017, MRSA Col(Colindale, England)
  MIC: 1 µg/mL (≈ 1.34 µM)
[1]; Staphylococcus aureus, MRSA, S. aureus HAV#218, Line R
  MIC: > 64 µg/mL
[1]; Staphylococcus aureus, MRSA, S. aureus HAV#220, Line R
  MIC: > 64 µg/mL
[1]; Staphylococcus aureus, MSSA, S. aureus HAV#219, Line R
  MIC: > 64 µg/mL
[1]; Staphylococcus aureus, S. aureus HAV#051, mecA, norA, spcl, ermA, aad1, aac6′-aph2″
  MIC: 2 µg/mL (≈ 2.67 µM)
[1]; Staphylococcus aureus, S. aureus HAV#052, mecA, norA, fosB, blaZ
  MIC: 2 µg/mL (≈ 2.67 µM)
[1]; Staphylococcus aureus, S. aureus HAV#053 mecA, norA, fosB
  MIC: 2 µg/mL (≈ 2.67 µM)
[1]; Staphylococcus aureus, S. aureus HAV#054, mecA, norA, spcl, aad1, fosB, ermA, aac6′-aph2″, blaZ
  MIC: > 256 µg/mL
[1]; Staphylococcus aureus, S. aureus HAV#211, Clinical
  MIC: > 64 µg/mL
[1]; Staphylococcus aureus, S. aureus HAV#212, Clinical
  MIC: 1 µg/mL (≈ 1.34 µM)
[1]; Staphylococcus aureus, S. aureus HAV#213, Clinical
  MIC: 0.25 µg/mL (≈ 0.334 µM)
[1]; Staphylococcus aureus, S. aureus HAV#214, Clinical
  MIC: 0.25 µg/mL (≈ 0.334 µM)
[1]; Staphylococcus aureus, S. aureus HAV#215, Clinical
  MIC: 0.25 µg/mL (≈ 0.334 µM)
[1]; Staphylococcus aureus, S. aureus HAV#216, Clinical, cfr
  MIC: > 128 µg/mL
[1]; Staphylococcus aureus, S. aureus HAV#217, cfr
  MIC: > 128 µg/mL
[1]; Staphylococcus aureus, VISA, S. aureus HAV#203, Clinical (VISA)
  MIC: > 64 µg/mL
[1]; Staphylococcus epidermidis, S. epidermidis HAV# 275 Clinical, cfr
  MIC: 32 µg/mL (≈ 42.7 µM)
[1]; Staphylococcus epidermidis, S. epidermidis HAV# 276, cfr
  MIC: > 64 µg/mL
[1]; Staphylococcus epidermidis, S. epidermidis HAV#277, Line R
  MIC: > 64 µg/mL
[1]; Staphylococcus epidermidis, S. epidermidis HAV#278 Line R
  MIC: > 64 µg/mL
[1]; Staphylococcus epidermidis, S. epidermidis HAV#279, Line R
  MIC: > 64 µg/mL
[1]; Staphylococcus haemolyticus, S. haemolyticus 5052, Line R & Methicillin R
  MIC: > 256 µg/mL
[1]; Streptococcus pneumoniae, ATCC700673, S. pneumoniae HAV#352, ATCC 700673, MDR
  MIC: > 64 µg/mL
[1]; Streptococcus pneumoniae, ATCCBAA255, S. pneumoniae HAV#354, ATCC-BAA-255
  MIC: 2 µg/mL (≈ 2.67 µM)
[1]; Streptococcus pneumoniae, ATCCBAA334, S. pneumoniae HAV#353, ATCC-BAA-334
  MIC: 1 µg/mL (≈ 1.34 µM)
[1]; Streptococcus pneumoniae, S. pneumoniae HAV#356, Clinical
  MIC: > 64 µg/mL
[1]; Streptococcus pneumoniae, S. pneumoniae HAV#358, Clinical
  MIC: 2 µg/mL (≈ 2.67 µM)
E. coli ATCC 25922
  MIC: 4 µg/mL (≈ 5.34 µM)
E. coli LptD
  MIC: ≤ 0.03 µg/mL
[2]
  MIC: > 64 µg/mL
K. pneumoniae ATCC 10031
  MIC: 4 µg/mL (≈ 5.34 µM)
S. aureus ATCC 29213
  MIC: 1 µg/mL (≈ 1.34 µM)
S. aureus ATCC 700699
  MIC: > 64 µg/mL
[3]
  MIC: 1 µg/mL (≈ 1.34 µM)
S. aureus MMX 3035 cErmA
  MIC: > 64 µg/mL
S. pneumoniae ATCC 49619
  MIC: 0.125 µg/mL (≈ 0.167 µM)
S. pneumoniae ATCC 6303
  MIC: 2 µg/mL (≈ 2.67 µM)
[4]
  MIC: > 64 µg/mL
[5]
  MIC: 16 µg/mL (≈ 21.4 µM)
S. pyogenes ATCC 19615
  MIC: 0.06 µg/mL (≈ 0.0801 µM)
[6]
  MIC: > 64 µg/mL
